Patent publication US5039528A, “EAA antagonists as anti-emetic drugs” (priority 1989, dated 1991)

Legend:
[1] = test system: neurons; conditions: Ser. No. 424,548; cited from earlier work
[2] = test system: emesis associated with cancer chemotherapy; conditions: cited from earlier work; for side effects: high doses; for anti-emetic effect in cancer chemotherapy: in vivo
[3] = test system: NMDA receptors; experiment: Chick retina assay: protection against excitotoxic action of NMDA; type: cell-based
Description: (§1) Antagonist potencies were established in a chick retina assay which has
(§2) (NMDA, KA and Quis) for excitotoxic properties and EAA antagonists for
(§3) potency in protecting the retina against the excitotoxic action of such
(§4) agonists. The concentration of antagonist required to totally prevent the
(§5) toxic action of an agonist was used to compare antagonists for potency.
(§6) For purposes of illustration, the data were normalized by assigning a
(§7) EAA antagonist properties have been described in each category. Antagonis
(§8) potencies were established in a chick retina assay which has been used by
(§9) Quis) for excitotoxic properties and EAA antagonists for potency in
(§10) protecting the retina against the excitotoxic action of such agonists.
(§11) concentration of antagonist required to totally prevent the toxic action
(§12) of an agonist was used to compare antagonists for potency. For purposes o
(§13) to kynurenic acid vs KA (see table 1) and all other values were adjusted

[4] = test system: motion sickness or vertigo; conditions: in vivo; cited from earlier work
[5] = test system: humans; conditions: humans; cited from earlier work
[6] = test system: EAA receptors (NMDA, KA, Quis); conditions: cited from earlier work
[7] = test system: Quis receptors; experiment: Chick retina assay: protection against excitotoxic action of Quis; type: cell-based
Description: as §1, §2, §3, §4, §5, §6, §7, §8, §9, §10, §11, §12, §13

[8] = test system: ferrets; experiment: Emesis induction by cisplatin (8 mg/kg IV) in ferrets; blockage by Kyn; type: in vivo, ferret; conditions: cisplatin 8 mg/kg IV, ferrets
Description: Four ferrets (a control group) received 8 mg/kg IV cisplatin, a chemotherapeutic drug which has a powerful emetic effect.
Nine ferrets were treated with cisplatin (8 mg/kg IV), and with Kyn, either by bolus (one-shot) injection using 150 mg/kg, or by continuous IV infusion using 50 mg/kg/hour.

[9] = test system: KA receptors; experiment: Chick retina assay: protection against excitotoxic action of KA; type: cell-based
Description: as §1, §2, §3, §4, §5, §6, §7, §8, §9, §10, §11, §12, §13

[10] = test system: dogs; experiment: Emesis induction by glutamate in dogs; blockage by D-AP5 or Kyn; type: in vivo, dog; conditions: Kyn 75 mg/kg SC
[11] = test system: dogs; experiment: Emesis induction by KA in dogs; blockage by Kyn; type: in vivo, dog; conditions: 50 mg/kg SC
Description: Kainic acid (KA), an EAA agonist which triggers the KA class of non-NMDA receptors, was administered to dogs at dosages in the vicinity of 0.5 mg/kg SC.

[12] = test system: 5-HT M receptors; conditions: cited from earlier work
[13] = Table 2, normalized to kynurenic acid vs KA = 1
[14] = Table 1, normalized to kynurenic acid vs KA = 1
[15] = Kyn 50 mg/kg/hour continuous IV infusion

OC(CCN1CCCCC1)(c1ccccc1)C1CC2C=CC1C2 (stereo not drawn) [biperiden]
reduction of the neurotoxicity of NMDA antagonists that penetrate the BBB [1]: effective in reducing the neurotoxicity

CN1CCN(CCCN2c3ccccc3Sc3ccc(Cl)cc32)CC1 [compazine]
side effects [2]: severe side effects such as abnormal motor movements, muscle rigidity, and tremors | anti-emetic effect in cancer chemotherapy [2]: only weakly active as anti-emetics

COc1ccc2c(c1)[C@]13CCCC[C@@H]1[C@H](C2)N(C)CC3 [dextromethorphan]
EAA antagonist potency vs NMDA [3, 13]: 20

CN1CC[C@@]23CCCC[C@@H]2[C@@H]1Cc1ccc(O)cc13 [dextrorphan]
EAA antagonist potency vs NMDA [3, 13]: 40

CN(C)CCOC(c1ccccc1)c1ccccc1 [dimenhydrinate]
effect against motion sickness or vertigo [4]: relatively ineffective unless taken before a boat or airplane ride or other motion begins, or before the onset of vertigo | effect on nausea and vomiting caused by other factors [4]: not effective

CCN(CC)C(C)CN1c2ccccc2Sc2ccccc21 (stereo not drawn) [ethopropazine]
EAA antagonist potency vs NMDA [3, 13]: 40

O=C(CCCN1CCC(O)(c2ccc(Cl)cc2)CC1)c1ccc(F)cc1 [haloperidol]
side effects [2]: severe side effects such as abnormal motor movements, muscle rigidity, and tremors | anti-emetic effect in cancer chemotherapy [2]: only weakly active as anti-emetics

CC(C(O)c1ccc(O)cc1)N1CCC(Cc2ccccc2)CC1 (stereo not drawn) [ifenprodil]
EAA antagonist potency vs NMDA [3, 14]: 100

CNC1(c2ccccc2Cl)CCCCC1=O (stereo not drawn) [ketamine]
psychotic effects [5]: psychotic effects

O=C(O)c1cc(=O)c2ccccc2[nH]1 [kynurenic acid]
EAA receptor subtype order of blockade [6]: NMDA>KA>Quis | EAA antagonist potency vs Quis [7, 14]: 1 | behavior/malaise after cisplatin, treated by continuous infusion [8, 15]: displayed playful behavior, sought and ate food, did not appear ill | vomiting after cisplatin, treated by continuous infusion [8, 15]: did not vomit | appeared as ill as the control animals, treated by bolus injection ([8]; Kyn 150 mg/kg bolus): only one appeared to be as ill as the control animals | vomiting and malaise after cisplatin, treated by bolus injection ([8]; Kyn 150 mg/kg bolus): Three of the ferrets treated by bolus injection vomited once or twice and showed transient malaise | EAA antagonist potency vs NMDA [3, 14]: 4 | EAA antagonist potency vs KA [9, 14]: 1 | blockage of glutamate-induced emesis [10]: could be blocked | blockage of KA-induced emesis [11]: emesis was blocked

CCN(CC)CCNC(=O)c1cc(Cl)c(N)cc1OC [metoclopramide]
5-HT M receptor antagonism [12]: only a weak 5-HT M receptor antagonist | anti-emetic effect in cancer chemotherapy [2]: only partially effective

OC(CCN1CCCC1)(c1ccccc1)C1CCCCC1 (stereo not drawn) [procyclidine]
reduction of the neurotoxicity of NMDA antagonists that penetrate the BBB [1]: effective in reducing the neurotoxicity | EAA antagonist potency vs NMDA [3, 13]: 67

CN1[C@@H]2C[C@@H](OC(=O)[C@H](CO)c3ccccc3)C[C@H]1[C@@H]1O[C@@H]12 [scopolamine]
effect against motion sickness or vertigo [4]: relatively ineffective unless taken before a boat or airplane ride or other motion begins, or before the onset of vertigo | effect on nausea and vomiting caused by other factors [4]: not effective

C=CCC1(C(C)CCC)C(=O)N=C(S)NC1=O (stereo not drawn) [thiamylal]
EAA antagonist potency vs Quis [7, 13]: 2 | EAA antagonist potency vs NMDA [3, 13]: 13 | EAA antagonist potency vs KA [9, 13]: 3

CCCC(C)C1(CC)C(=O)NC(=S)NC1=O (stereo not drawn) [thiopental]
EAA antagonist potency vs Quis [7, 13]: 2 | EAA antagonist potency vs NMDA [3, 13]: 7 | EAA antagonist potency vs KA [9, 13]: 2

OC(CCN1CCCCC1)(c1ccccc1)C1CCCCC1 (stereo not drawn) [trihexyphenidyl]
reduction of the neurotoxicity of NMDA antagonists that penetrate the BBB [1]: effective in reducing the neurotoxicity

NC(CCCC(=O)O)C(=O)O (stereo not drawn) [α-amino adipate]
EAA antagonist potency vs NMDA [3, 14]: 5
